Assay results published in US20080300280A1, “Cyanobenzene Compounds for Combating Animal Pests” (priority 2005, published 2008).
Where two headings read alike, the source gives them in different places.

Assays:
[1] = test system: Cotton Aphid (aphis gossypii), mixed life stages; assay: Cotton aphid (Aphis gossypii), mixed life stages, leaf-dip test on cotton plants; format: in vivo; conditions: 120 h, read-out: mortality of cotton aphid in comparison with untreated controls
Method: (§1) The active compounds were formulated in a mixture of 50 vol.-% acetone:50 vol.-% water. A nonionic surfactant (Kinetic®) was included in the solution at a volume of 0.01% v/v.
(§2) In the following tests, the formulated solutions of the active compounds were diluted to an active ingredient concentration of 300 ppm and the diluted solutions were applied in the below mentioned tests.
II.1 Cotton Aphid (aphis gossypii), Mixed Life Stages
Cotton plants at the cotyledon stage were infested prior to treatment by placing a heavily infested leaf from the main aphid colony on top of each cotyledon. The aphids were allowed to transfer overnight and the host leaf was removed. The infested cotyledons were then dipped and agitated in the test solution for 3 seconds and allowed to dry in a fume hood. Test plants were maintained under fluorescent lighting in a 24-hr photoperiod at 25° C. and 20-40% relative humidity. Aphid mortality on the treated plants, relative to mortality on untreated check plants, was determined after 5 days.

[2] = test system: Green Peach Aphid (Myzus persicae), mixed life stages; assay: Green peach aphid (Myzus persicae), mixed life stages, leaf-dip test on bell pepper plants; format: in vivo; conditions: 120 h, read-out: mortality of green peach aphid in comparison with untreated controls
Method: as §1, §2
II.2 Green Peach Aphid (Myzus persicae), Mixed Life Stages
Bell pepper plants at the first true-leaf stage were infested prior to treatment by placing heavily infested leaves from the main aphid colony on top of the treatment plants. The aphids were allowed to transfer overnight to accomplish an infestation of 30-40 aphids per plant and the host leaves were removed. The infested leaves of the test plants were then dipped and agitated in the test solution for 3 seconds and allowed to dry in a fume hood. Test plants were maintained under fluorescent lighting in a 24-hr photoperiod at 25° C. and 20-40% relative humidity. Aphid mortality on the treated plants, relative to mortality on untreated check plants, was determined after 5 days.

Bean Aphid (Aphis fabae) = assay: Bean aphid (Aphis fabae), plant-dip test on nasturtium plants; format: in vivo; conditions: 72 h, read-out: mortality of bean aphid in comparison with untreated controls
Method: as §1, §2
11.3 Bean Aphid (Aphis fabae)
Nasturtium plants grown in Metro mix in the 1st leaf-pair stage (variety ‘Mixed Jewel’) were infested with approximately 2-30 laboratory-reared aphids by placing infested cut plants on top of the test plants. The cut plants were removed after 24 hr. Each plant was dipped into the test solution to provide complete coverage of the foliage, stem, protruding seed surface and surrounding cube surface and allowed to dry in the fume hood. The treated plants were kept at about 25° C. with continuous fluorescent light. Aphid mortality is determined after 3 days.

[3] = 300 ppm, infested cotton cotyledons dipped 3 seconds, after 5 days
[4] = 300 ppm, infested bell pepper leaves dipped 3 seconds, after 5 days
[5] = 300 ppm, infested nasturtium plants dipped, after 3 days

SMILES | mortality at 300 ppm [1, 3] [%] | mortality at 300 ppm [2, 4] [%] | mortality at 300 ppm (Bean Aphid (Aphis fabae); [5]) [%] | further results
CC(=O)NS(=O)(=O)c1cccc(C)c1C#N [Example 1] | ≥ 86 | ≥ 86 | – | –
CCN(C(C)=O)S(=O)(=O)c1cccc(C)c1C#N [Example 2, N-Acetyl-N-ethyl-2-cyano-3-methyl-benzene-sulfonamide] | ≥ 86 | ≥ 86 | ≥ 86 | –
COc1cccc(S(=O)(=O)N(OC)C(C)=O)c1C#N [Example 3] | ≥ 86 | ≥ 86 | – | –
CCC(=O)N(CC)S(=O)(=O)c1cccc(C)c1C#N [Example 5] | ≥ 86 | ≥ 86 | ≥ 86 | –
CCN(C(=O)C(F)(F)F)S(=O)(=O)c1cccc(C)c1C#N [Example 6] | ≥ 86 | ≥ 86 | ≥ 86 | –
C#CCN(C(C)=O)S(=O)(=O)c1cccc(C)c1C#N [Example 7] | ≥ 86 | ≥ 86 | ≥ 86 | –
C#CCN(C(=O)CC)S(=O)(=O)c1cccc(C)c1C#N [Example 8] | ≥ 86 | ≥ 86 | ≥ 86 | –
CC(=O)N(C(C)C)S(=O)(=O)c1cccc(C)c1C#N [Example 9] | ≥ 86 | ≥ 86 | – | –
C=CC(=O)N(CC)S(=O)(=O)c1cccc(C)c1C#N [Example 10] | ≥ 86 | – | – | –
C#CCN(C(=O)C(F)(F)F)S(=O)(=O)c1cccc(C)c1C#N [Example 11] | ≥ 86 | ≥ 86 | ≥ 86 | –
Cc1cccc(S(=O)(=O)N(C(=O)C(F)(F)F)C(C)C)c1C#N [Example 12] | ≥ 86 | ≥ 86 | ≥ 86 | –
CCC(=O)NS(=O)(=O)c1cccc(C)c1C#N [Example 13] | ≥ 86 | ≥ 86 | ≥ 86 | –
Cc1cccc(S(=O)(=O)NC(=O)C(C)C)c1C#N [Example 14] | ≥ 86 | ≥ 86 | ≥ 86 | –
CCN(C(C)=O)S(=O)(=O)c1cccc(OC(F)F)c1C#N [Example 15] | ≥ 86 | ≥ 86 | ≥ 86 | –
CCN(C(C)=O)S(=O)(=O)c1c(F)ccc(OC)c1C#N [Example 16] | ≥ 86 | ≥ 86 | – | –
CCN(C(=O)c1ccccc1)S(=O)(=O)c1cccc(C)c1C#N [Example 17] | ≥ 86 | – | ≥ 86 | –
Cc1cccc(S(=O)(=O)N2CCCC2=O)c1C#N [Example 18, 2-Methyl-6-(2-oxo-pyrrolidine-1-sulfonyl)benzonitrile] | ≥ 86 | – | ≥ 86 | –
Cc1cccc(S(=O)(=O)N2CCCCC2=O)c1C#N [Example 19] | ≥ 86 | – | – | –
CCNC(=O)N(CC)S(=O)(=O)c1cccc(C)c1C#N [Example 21] | ≥ 86 | ≥ 86 | ≥ 86 | –
CCN(C(=O)Nc1ccccc1)S(=O)(=O)c1cccc(C)c1C#N [Example 22, N-Ethyl-N-(2-cyano-3-methyl-benzenesulfonyl)-N′-phenyl urea] | ≥ 86 | ≥ 86 | – | –
CCN(C(=O)NC(C)C)S(=O)(=O)c1cccc(C)c1C#N [Example 23] | ≥ 86 | ≥ 86 | ≥ 86 | –
CCC(C)NC(=O)N(CC)S(=O)(=O)c1cccc(C)c1C#N (centres unmarked) [Example 24] | ≥ 86 | – | – | –
Cc1cccc(S(=O)(=O)NC(=O)Oc2ccccc2)c1C#N [Example 25] | – | – | – | mortality at 300 ppm [1]: ≥ 86%; mortality at 300 ppm (Bean Aphid (Aphis fabae)): ≥ 86%

SMILES | mortality at 300 ppm [1, 3] [%] | mortality at 300 ppm [2, 4] [%] | mortality at 300 ppm (Bean Aphid (Aphis fabae); [5]) [%] | further results
CCN(C(=O)Oc1ccccc1)S(=O)(=O)c1cccc(C)c1C#N [Example 26] | – | – | – | mortality at 300 ppm [1]: ≥ 86%; mortality at 300 ppm (Bean Aphid (Aphis fabae)): ≥ 86%
C=CCOC(=O)N(CC)S(=O)(=O)c1cccc(C)c1C#N [Example 27] | – | – | – | mortality at 300 ppm [1]: ≥ 86%; mortality at 300 ppm [2]: ≥ 86%; mortality at 300 ppm (Bean Aphid (Aphis fabae)): ≥ 86%
Cc1cccc(S(=O)(=O)NC(=O)OCc2ccccc2)c1C#N [Example 28, N-(Benzyloxycarbonyl)-2-cyano-3-methyl-benzenesulfonamide] | – | – | – | mortality at 300 ppm [1]: ≥ 86%; mortality at 300 ppm [2]: ≥ 86%
CCO/C(=N\S(=O)(=O)c1cccc(C)c1C#N)NC(C)C [Example 29, N-(Isopropylamino-ethoxy-methylene)-2-cyano-3-methyl-benzenesulfonamide] | – | – | – | melting point: 139 to 142 °C
CCO/C(=N\S(=O)(=O)c1cccc(C)c1C#N)NC(C)(C)C [Example 30] | – | – | ≥ 86 | –
CCOC(=NS(=O)(=O)c1cccc(C)c1C#N)OCC [Example 31] | ≥ 86 | ≥ 86 | ≥ 86 | –
COC(=NS(=O)(=O)c1cccc(C)c1C#N)OC [Example 32, 2-Cyano-N-dimethoxymethylene-3-methyl-benzenesulfonamide] | ≥ 86 | – | ≥ 86 | –
CCOC(=NS(=O)(=O)c1cccc(OC(F)F)c1C#N)OCC [Example 33] | ≥ 86 | ≥ 86 | ≥ 86 | –
CO/C(C)=N\S(=O)(=O)c1cccc(C)c1C#N [Example 34, 2-Cyano-N-(1-methoxyethylidene)-3-methyl-benzenesulfonamide] | ≥ 86 | ≥ 86 | – | –
Cc1cccc(S(=O)(=O)/N=C/N(C)C)c1C#N [Example 35, 2-Cyano-3-methyl-N-dimethylaminomethylene-benzenesulfonamide] | ≥ 86 | ≥ 86 | ≥ 86 | –
CO/C(C)=N\S(=O)(=O)c1cccc(OC(F)F)c1C#N [Example 36] | ≥ 86 | ≥ 86 | ≥ 86 | –
C/C(=N\S(=O)(=O)c1cccc(C)c1C#N)C(C)(C)C [Example 37, 2-Cyano-3-methyl-N-(1,2,2-trimethyl-propylidene)-benzenesulfonamide] | ≥ 86 | ≥ 86 | ≥ 86 | –
Cc1cccc(S(=O)(=O)N=S2CCCC2)c1C#N [Example 38, 2-Cyano-3-methyl-N-(tetrahydro-thiphophen-1-ylidene)benzenesulfonamide] | ≥ 86 | ≥ 86 | ≥ 86 | –
N#Cc1c(OC(F)F)cccc1S(=O)(=O)N=S1CCCC1 [Example 39] | ≥ 86 | ≥ 86 | – | –
Cc1cccc(S(=O)(=O)N=S(C(C)C)C(C)C)c1C#N [Example 40] | ≥ 86 | ≥ 86 | – | –
Cc1cccc(S(=O)(=O)n2cccc2)c1C#N [Example 41, 2-Methyl-6-(pyrrole-1-sulfonyl)-benzonitrile] | ≥ 86 | ≥ 86 | ≥ 86 | –
N#Cc1c(OC(F)F)cccc1S(=O)(=O)n1cccc1 [Example 42] | ≥ 86 | ≥ 86 | ≥ 86 | –
Cc1cccc(S(=O)(=O)n2ccc(CO)c2)c1C#N [Example 43] | ≥ 86 | ≥ 86 | – | –
CC(=O)OCc1ccn(S(=O)(=O)c2cccc(C)c2C#N)c1 [Example 44] | ≥ 86 | ≥ 86 | ≥ 86 | –
Cc1cccc(S(=O)(=O)n2ccc(Br)c2)c1C#N [Example 45, 2-Methyl-6-(3-bromo-pyrrole-1-sulfonyl)-benzonitrile] | ≥ 86 | ≥ 86 | – | –
Cc1cccc(S(=O)(=O)n2cccn2)c1C#N [Example 46, 2-Methyl-6-(pyrazole-1-sulfonyl)-benzonitrile] | – | – | – | melting point: 99 to 104 °C
Cc1cccc(S(=O)(=O)n2cncn2)c1C#N [Example 47, 2-Methyl-6-([1.2.4]-triazole-1-sulfonyl)-benzonitrile] | – | – | – | melting point: 142 to 144 °C
Cc1cccc(S(=O)(=O)n2ccnc2)c1C#N [Example 48, 2-Methyl-6-(imidazole-1-sulfonyl)-benzonitrile] | ≥ 86 | ≥ 86 | – | –
